Reference: PubChem BioAssay AID1919004 (Molecular Pharmacology Branch, DTP, NCI, 2023)
Several values for one entry are separate records, joined by “and”; a condition that tells them apart may be missing. Identical values can stand only once.

System: 883617-216-R-J1-PDC complex spheroids, growth, % test/control
Assay: Anticancer human tumor 883617-216-R-J1-PDC patient-derived bladder carcinoma cell line growth inhibition [AhR]
Conditions: for viability, T/C: stronger effect = lower value
In short: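 Complex tumor spheroids co-cultured with HUVEC and human MSC stroma; AhR antagonists tested in combination with standard-of-care and investigational agents. Top concentration at or near clinical Cmax (else 10 microM), half-log dilutions; growth expressed as percent test/control.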

[1] = curve of first compound, second compound 0.1 µM
[2] = curve of first compound, second compound 0.316 µM
[3] = curve of first compound, second compound 1 µM
[4] = curve of first compound, second compound 3.16 µM
[5] = curve of first compound, second compound 10 µM
[6] = second compound 0.1 µM, first compound 0.0316 µM
[7] = second compound 0.1 µM, first compound 0.1 µM
[8] = second compound 0.1 µM, first compound 0.316 µM
[9] = second compound 0.1 µM, first compound 1 µM
[10] = second compound 0.1 µM, first compound 3.16 µM
[11] = second compound 0.1 µM, first compound 10 µM
[12] = second compound 0.316 µM, first compound 0.0316 µM
[13] = second compound 0.316 µM, first compound 0.1 µM
[14] = second compound 0.316 µM, first compound 0.316 µM
[15] = second compound 0.316 µM, first compound 1 µM
[16] = second compound 0.316 µM, first compound 3.16 µM
[17] = second compound 0.316 µM, first compound 10 µM
[18] = second compound 1 µM, first compound 0.0316 µM
[19] = second compound 1 µM, first compound 0.1 µM
[20] = second compound 1 µM, first compound 0.316 µM
[21] = second compound 1 µM, first compound 1 µM
[22] = second compound 1 µM, first compound 3.16 µM
[23] = second compound 1 µM, first compound 10 µM
[24] = second compound 3.16 µM, first compound 0.0316 µM
[25] = second compound 3.16 µM, first compound 0.1 µM
[26] = second compound 3.16 µM, first compound 0.316 µM
[27] = second compound 3.16 µM, first compound 1 µM
[28] = second compound 3.16 µM, first compound 3.16 µM
[29] = second compound 3.16 µM, first compound 10 µM
[30] = second compound 10 µM, first compound 0.0316 µM
[31] = second compound 10 µM, first compound 0.1 µM
[32] = second compound 10 µM, first compound 0.316 µM
[33] = second compound 10 µM, first compound 1 µM
[34] = second compound 10 µM, first compound 3.16 µM
[35] = second compound 10 µM, first compound 10 µM
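Also: exposure lasted 7 days after dosing on day 3 of spheroid growth.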

`COc1cc(Nc2ncc3c(n2)-c2ccc(Cl)cc2C(c2c(F)cccc2OC)=NC3)ccc1C(=O)O` + CC(CO)NC(=O)c1cc(-c2ccc(Cl)cc2)nn(-c2cnn(C)c2)c1=O was tested, and the IC50 [1] was over 10 µM, the IC50 [2] was over 10 µM and the IC50 [3] was over 10 µM. It also gave an IC50 [4] of over 10 µM, an IC50 [5] of over 10 µM and a viability, T/C [6] of 140%. For the same compound, the viability, T/C [7] was 128%, the viability, T/C [8] was 77.8% and the viability, T/C [9] was 97%. It also gave a viability, T/C [10] of 86.6%, a viability, T/C [11] of 120% and a viability, T/C [12] of 128%. It also gave a viability, T/C [13] of 85%, a viability, T/C [14] of 80.5% and a viability, T/C [15] of 87%. The viability, T/C [16] was 60.8%, the viability, T/C [17] was 95.6% and the viability, T/C [18] was 124%. It also gave a viability, T/C [19] of 123%, a viability, T/C [20] of 93.3% and a viability, T/C [21] of 48.3%. It also gave a viability, T/C [22] of 103%, a viability, T/C [23] of 101% and a viability, T/C [24] of 77%. It also gave a viability, T/C [25] of 103%, a viability, T/C [26] of 135% and a viability, T/C [27] of 105%. For the same compound, the viability, T/C [28] was 70.9%, the viability, T/C [29] was 70.6% and the viability, T/C [30] was 130%. It also gave a viability, T/C [31] of 71%, a viability, T/C [32] of 121% and a viability, T/C [33] of 125%. It also gave a viability, T/C [34] of 71.7% and a viability, T/C [35] of 88.4%.

For `CC(C)c1c(-c2ccccc2)nc2c(C#N)c[nH]n2c1=O` + CC(CO)NC(=O)c1cc(-c2ccc(Cl)cc2)nn(-c2cnn(C)c2)c1=O, the IC50 [1] was over 10 µM, the IC50 [2] was over 10 µM and the IC50 [3] was over 10 µM. The IC50 [4] was over 10 µM, the IC50 [5] was over 10 µM and the viability, T/C [6] was 77.3%. It also gave a viability, T/C [7] of 71.2%, a viability, T/C [8] of 66.1% and a viability, T/C [9] of 70.4%. It also gave a viability, T/C [10] of 84.5%, a viability, T/C [11] of 96% and a viability, T/C [12] of 94.8%. For the same compound, the viability, T/C [13] was 85.2%, the viability, T/C [14] was 65.7% and the viability, T/C [15] was 74%. The viability, T/C [16] was 91.4%, the viability, T/C [17] was 75.6% and the viability, T/C [18] was 59.7%. The viability, T/C [19] was 97.8%, the viability, T/C [20] was 103% and the viability, T/C [21] was 92.6%. It also gave a viability, T/C [22] of 87.1%, a viability, T/C [23] of 78.3% and a viability, T/C [24] of 95.2%. For the same compound, the viability, T/C [25] was 92.5%, the viability, T/C [26] was 75.2% and the viability, T/C [27] was 79.3%. For the same compound, the viability, T/C [28] was 51%, the viability, T/C [29] was 57.7% and the viability, T/C [30] was 79.4%. The viability, T/C [31] was 87.1%, the viability, T/C [32] was 106% and the viability, T/C [33] was 57.8%. For the same compound, the viability, T/C [34] was 64% and the viability, T/C [35] was 62.5%.

With `COc1cc(C2c3cc4c(cc3C(OC3OC5COC(C)OC5C(O)C3O)C3COC(=O)C23)OCO4)cc(OC)c1O` (stereo unspecified) the viability, T/C (compound 0.0316 µM) was 91.8% and 80.6% and 110%, the viability, T/C (compound 0.1 µM) was 107% and 89.4% and 97.1% and the viability, T/C (compound 0.316 µM) was 75.1% and 76.3% and 79.2%. The viability, T/C (compound 1 µM) was 63.8% and 88.8% and 74%, the viability, T/C (compound 3.16 µM) was 69.7% and 85.2% and 68.1% and the viability, T/C (compound 10 µM) was 59.4% and 84.4% and 59.1%. It also gave an IC50 (curve of compound) of over 10 µM.

With `CC(C)CC(NC(=O)C(Cc1ccccc1)NC(=O)c1cnccn1)B(O)O` (stereo unspecified) the viability, T/C (compound 0.000949 µM) was 97.1% and 98.4% and 72.1%, the viability, T/C (compound 0.003 µM) was 105% and 94.3% and 10.1% and the viability, T/C (compound 0.03 µM) was 0.36% and 0.18% and 1.33%. For the same compound, the viability, T/C (compound 0.0949 µM) was 0.25% and 0.13% and 2.71%, the viability, T/C (compound 0.3 µM) was 0.36% and 0.19% and 3.19% and the IC50 (curve of compound) was 0.00745 µM and 0.00716 µM and 0.00143 µM.

In the case of `Cc1cncc(-c2nc(NCCc3c[nH]c4ccccc34)c3ncn(C(C)C)c3n2)c1`, the viability, T/C (compound 0.1 µM) is reported as 88.2% [middle of 19 runs], the viability, T/C (compound 1 µM) is reported as 95.8% [middle of 20 runs] and the viability, T/C (compound 10 µM) is reported as 51.4% [middle of 21 runs].
